Measurements reported in patent US20230121313A1 (priority 2019, published 2023).

Legend:
[1] = Pharmacokinetics of intranasal esketamine 28, 56, 84 mg in healthy subjects (Example 9); conditions: for AUC(0-inf) / AUC(0-t) / Cmax / half-life / Tmax: both, human, plasma; for Tmax: healthy subjects
Experimental: This was an open-label, single-center study. The subjects were healthy Caucasian men and women, 20 to 55 years of age, inclusive. […] The solution consisted of:
Pharmacokinetic blood samples for measurement of esketamine and noresketamine concentrations in plasma were collected from predose until up to 24 hours after each intranasal esketamine regimen on Day 1 of each period.
Blood samples (4 mL each) for determination of esketamine and noresketamine plasma concentrations were collected into the appropriate collection tube (e.g., Vacutainer®) at timepoints 0.00, 0.12, 0.20, 0.37, 0.53, 0.67, 0.83, 1.00, 1.25, 1.50, 2.00, 3.00, 4.00, 6.00, 9.00, 12.00, 18.00, and 24.00 h. The total amount of blood to be drawn for clinical laboratory tests and PK evaluations is approximately 327 mL.
Plasma samples were analyzed for esketamine and noresketamine concentrations using the validated, specific and sensitive liquid chromatography coupled to tandem mass spectrometry (LC-MS/MS) achiral method of Example 8.
Serial PK blood samples (4 mL each) were collected for a 24-hour period from each subject (Periods 1, 2, and 3).
The following key parameters of esketamine and noresketamine in plasma were calculated using noncompartmental methods and actual sampling times: Cmax, tmax, AUClast, AUC∞, t1/2,λ, and λz.

[2] = system: subjects with MDD at imminent risk for suicide; assay: MADRS suicide item, Study […]2001; assay type: in vivo, human; conditions: 84 mg
Source text: • a. Changes from baseline to Day 2 and Day 25 for the MADRS total score • b. Changes from baseline to Day 1 4-hours postdose, Day 2 and Day 25 for the MADRS Suicide Item • c. Changes from baseline to Day 1 4-hours postdose, Day 2, and Day 25 for the clinical global judgment of suicide risk from the Suicide Ideation and Behavior Assessment Tool (SIBAT) • d. Sustained response (Onset of Clinical Response) defined as at least 50% reduction from baseline in MADRS total score with onset on Day 1 that is maintained through the end of the double-blind phase (Day 25) • e. Changes from baseline to Day 1 4-hours postdose, Day 2, and Day 25 for the Beck Scale for Suicidal Ideation (BSS) • f. Changes from baseline to Day 1 4-hours postdose and Day 25 for the Beck Hopelessness Scale
Results of the change from baseline over time for the suicide item from the MADRS assessment can be found in Attachment 1.

CN[C@]1(c2ccccc2Cl)CCCCC1=O [esketamine, (S)-2-(2-chlorophenyl)-2-(methylamino)cyclohexanone]
AUC(0-inf) ([1]; inhaled or intranasal, 28 mg): 136 ng·h/mL | AUC(0-t) ([1]; inhaled or intranasal, 28 mg): 128 ng·h/mL | Cmax ([1]; inhaled or intranasal, 28 mg): 49.7 ng/mL | half-life ([1]; inhaled or intranasal, 28 mg): 7.25 h | Tmax ([1]; inhaled or intranasal, 28 mg, tmax, esketamine in plasma, single intranasal 28 mg (Treatment A), median): 0.67 h | AUC(0-inf) ([1]; inhaled or intranasal, 56 mg): 222 ng·h/mL | AUC(0-t) ([1]; inhaled or intranasal, 56 mg): 216 ng·h/mL | Cmax ([1]; inhaled or intranasal, 56 mg): 74.1 ng/mL | half-life ([1]; inhaled or intranasal, 56 mg): 7.25 h | Tmax ([1]; inhaled or intranasal, 56 mg, tmax, esketamine in plasma, single intranasal 56 mg (Treatment B), median): 0.67 h | AUC(0-inf) ([1]; inhaled or intranasal, 84 mg): 329 ng·h/mL | AUC(0-t) ([1]; inhaled or intranasal, 84 mg): 310 ng·h/mL | Cmax ([1]; inhaled or intranasal, 84 mg): 103 ng/mL | half-life ([1]; inhaled or intranasal, 84 mg): 7.11 h | Tmax ([1]; inhaled or intranasal, 84 mg, Median tmax of esketamine, range across regimens, intranasal 28, 56, 84 mg): 0.67 to 0.83 h | Tmax ([1]; inhaled or intranasal, 84 mg, tmax, esketamine in plasma, single intranasal 84 mg (Treatment C), median): 0.83 h | half-life ([1]; other: intranasal, 84 mg): 7.11 to 7.25 h | AUC (AUClast and AUC∞) variability ([1]; esketamine in plasma): 25.0% to 30.4 | Cmax variability (percent coefficient of variation) across the 3 treatment groups ([1]; esketamine in plasma): 35.7% to 36.7 | MADRS suicide item (Suicidal Thoughts), Med ([2]; Day 1 (DB): 4 H, LOCF, N 35): 2.0 | MADRS suicide item, change from baseline, Med ([2]; Day 1 (DB): 4 H, LOCF, N 35): −3.0 | MADRS suicide item (Suicidal Thoughts), Med ([2]; Day 1(DB): 4 H, N 35): 2.0 | MADRS suicide item, change from baseline, Med ([2]; Day 1(DB): 4 H, N 35): −3.0 | MADRS suicide item (Suicidal Thoughts), Med ([2]; Day 2(DB) LOCF, N 35): 2.0 | MADRS suicide item, change from baseline, Med ([2]; Day 2(DB) LOCF, N 35): −3.0 | MADRS suicide item (Suicidal Thoughts), Med ([2]; Day 2(DB), N 35): 2.0 | MADRS suicide item, change from baseline, Med ([2]; Day 2(DB), N 35): −3.0 | MADRS suicide item (Suicidal Thoughts), Med ([2]; Day 3(DB) LOCF, N 35): 2.0 | MADRS suicide item, change from baseline, Med ([2]; Day 3(DB) LOCF, N 35): −4.0 | MADRS suicide item (Suicidal Thoughts), Med ([2]; Day 3(DB), N 32): 2.0 | MADRS suicide item, change from baseline, Med ([2]; Day 3(DB), N 32): −4.0 | MADRS suicide item (Suicidal Thoughts), Med ([2]; Day 4(DB) LOCF, N 35): 1.0 | MADRS suicide item, change from baseline, Med ([2]; Day 4(DB) LOCF, N 35): −4.0 | MADRS suicide item (Suicidal Thoughts), Med ([2]; Day 4(DB), N 24): 1.0 | MADRS suicide item, change from baseline, Med ([2]; Day 4(DB), N 24): −4.0 | MADRS suicide item (Suicidal Thoughts), Med ([2]; Day 5(DB) LOCF, N 35): 1.0 | MADRS suicide item, change from baseline, Med ([2]; Day 5(DB) LOCF, N 35): −4.0 | MADRS suicide item (Suicidal Thoughts), Med ([2]; Day 5(DB), N 21): 0.0 | MADRS suicide item, change from baseline, Med ([2]; Day 5(DB), N 21): −4.0 | MADRS suicide item (Suicidal Thoughts), Med ([2]; Day 8(DB) LOCF, N 35): 1.0 | MADRS suicide item, change from baseline, Med ([2]; Day 8(DB) LOCF, N 35): −4.0 | MADRS suicide item (Suicidal Thoughts), Med ([2]; Day 8(DB), N 31): 1.0 | MADRS suicide item, change from baseline, Med ([2]; Day 8(DB), N 31): −4.0 | MADRS suicide item (Suicidal Thoughts), Med ([2]; Day 11(DB) LOCF, N 35): 1.0 | MADRS suicide item, change from baseline, Med ([2]; Day 11(DB) LOCF, N 35): −4.0 | MADRS suicide item (Suicidal Thoughts), Med ([2]; Day 11(DB), N 25): 0.0 | MADRS suicide item, change from baseline, Med ([2]; Day 11(DB), N 25): −4.0 | MADRS suicide item (Suicidal Thoughts), Med ([2]; Day 15(DB) LOCF, N 35): 1.0 | MADRS suicide item, change from baseline, Med ([2]; Day 15(DB) LOCF, N 35): −4.0 | MADRS suicide item (Suicidal Thoughts), Med ([2]; Day 15(DB), N 29): 1.0 | MADRS suicide item, change from baseline, Med ([2]; Day 15(DB), N 29): −4.0 | MADRS suicide item (Suicidal Thoughts), Med ([2]; Day 18(DB) LOCF, N 35): 1.0 | MADRS suicide item, change from baseline, Med ([2]; Day 18(DB) LOCF, N 35): −4.0 | MADRS suicide item (Suicidal Thoughts), Med ([2]; Day 18(DB), N 23): 1.0 | MADRS suicide item, change from baseline, Med ([2]; Day 18(DB), N 23): −4.0 | MADRS suicide item (Suicidal Thoughts), Med ([2]; Day 22(DB) LOCF, N 35): 0.0 | MADRS suicide item, change from baseline, Med ([2]; Day 22(DB) LOCF, N 35): −4.0 | MADRS suicide item (Suicidal Thoughts), Med ([2]; Day 22(DB), N 28): 0.0 | MADRS suicide item, change from baseline, Med ([2]; Day 22(DB), N 28): −4.0 | MADRS suicide item (Suicidal Thoughts), Med ([2]; Day 25(DB): 4 H, N 24): 0.0 | MADRS suicide item, change from baseline, Med ([2]; Day 25(DB): 4 H, N 24): −4.5 | MADRS suicide item (Suicidal Thoughts), Med ([2]; Day 25(DB): Predose LOCF, N 35): 0.0 | MADRS suicide item, change from baseline, Med ([2]; Day 25(DB): Predose LOCF, N 35): −4.0 | MADRS suicide item (Suicidal Thoughts), Med ([2]; Day 25(DB): Predose, N 24): 0.0 | MADRS suicide item, change from baseline, Med ([2]; Day 25(DB): Predose, N 24): −4.5 | MADRS suicide item (Suicidal Thoughts), Med ([2]; Day 32(FU) LOCF, N 26): 0.0 | MADRS suicide item, change from baseline, Med ([2]; Day 32(FU) LOCF, N 26): −4.0 | MADRS suicide item (Suicidal Thoughts), Med ([2]; Day 32(FU), N 26): 0.0 | MADRS suicide item, change from baseline, Med ([2]; Day 32(FU), N 26): −4.0 | MADRS suicide item (Suicidal Thoughts), Med ([2]; Day 39(FU) LOCF, N 27): 0.0 | MADRS suicide item, change from baseline, Med ([2]; Day 39(FU) LOCF, N 27): −5.0 | MADRS suicide item (Suicidal Thoughts), Med ([2]; Day 39(FU), N 26): 0.0 | MADRS suicide item, change from baseline, Med ([2]; Day 39(FU), N 26): −5.0 | MADRS suicide item (Suicidal Thoughts), Med ([2]; Day 46(FU) LOCF, N 27): 0.0 | MADRS suicide item, change from baseline, Med ([2]; Day 46(FU) LOCF, N 27): −4.0 | MADRS suicide item (Suicidal Thoughts), Med ([2]; Day 46(FU), N 25): 0.0 | MADRS suicide item, change from baseline, Med ([2]; Day 46(FU), N 25): −4.0 | MADRS suicide item (Suicidal Thoughts), Med ([2]; Day 53(FU) LOCF, N 27): 0.0 | MADRS suicide item, change from baseline, Med ([2]; Day 53(FU) LOCF, N 27): −4.0 | MADRS suicide item (Suicidal Thoughts), Med ([2]; Day 53(FU), N 24): 0.0 | MADRS suicide item, change from baseline, Med ([2]; Day 53(FU), N 24): −5.0 | MADRS suicide item (Suicidal Thoughts), Med ([2]; Day 67(FU) LOCF, N 27): 0.0 | MADRS suicide item, change from baseline, Med ([2]; Day 67(FU) LOCF, N 27): −4.0 | MADRS suicide item (Suicidal Thoughts), Med ([2]; Day 67(FU), N 26): 0.0 | MADRS suicide item, change from baseline, Med ([2]; Day 67(FU), N 26): −4.0 | MADRS suicide item (Suicidal Thoughts), Med ([2]; Day 81(FU), N 24): 0.0 | MADRS suicide item, change from baseline, Med ([2]; Day 81(FU), N 24): −5.0 | MADRS suicide item (Suicidal Thoughts), Med ([2]; End Point(DB), N 35): 0.0 | MADRS suicide item, change from baseline, Med ([2]; End Point(DB), N 35): −4.0 | MADRS suicide item (Suicidal Thoughts), Med ([2]; End Point(FU), N 27): 0.0 | MADRS suicide item, change from baseline, Med ([2]; End Point(FU), N 27): −5.0
